Test results: patent publication US20230242679A1, “BISPECIFIC ANTIBODY THERAPIES” (priority 2022, published 2023)
Entries after “also recorded” stand apart in the source; their conditions may differ. Where two headings read alike, the source gives them in different places.

What was measured:
normal human PBMC = assay: Cytokine release assay in normal human PBMC stimulated with LPS or Poly (I:C); type: cell-based; conditions: for Number of cytokines reduced of those analyzed: LPS or Poly(I:C), pooled and individual donor results
[1] = test system: CD19-targeting CAR T-cells co-cultured with CD19+Raji lymphoma target cells; assay: Cytokine levels in co-culture of CD19 CAR T-cells with Raji cells; type: cell-based, human; conditions: for Levels of IL-6 / Levels of TNF-α / Levels of IFN-γ: CAR T-cells:Raji cells 10:1; for Levels of IL-6: FIG. 1A; for Levels of TNF-α: FIG. 1B; for Levels of IFN-γ: FIG. 1C
Excerpt: The impact of CT01681 on the efficacy of CD19-targeting CAR T-cells in vitro was studied as a surrogate measure of the impact of CTO1681 on T cell function downstream of administering bispecific antibody therapy to a subject. […] CD3 T cells were sorted from one healthy donor PBMCs, stimulated for a short period of time and transduced with CD19 CAR-T lentivirus (LV) containing CD28 and CD3ζ domains. CD19 CAR T-cells were expanded for 6 days and used in the assay. CD19-targeting CD3 T-cells were treated with 5 increasing concentrations of CT01681 (0.36 nM, 1.8 nM, 9 nM, 45 nM, and 225 nM) or vehicle for 30 minutes prior to, and during co-culture with CD19+Raji lymphoma target cells. Media alone, vehicle, and positive control (dexamethasone) wells were included. Following initial treatment, CAR T-cells (Effectors) were co-cultured with fluorescently labeled CD19+Raji tumor cells (Target cells) at 3 different Effector: Target cell ratios (10:1, 5:1 and 1:1) and treated with 5 different concentrations of CT01681 or vehicle for 24 hours. Target cells (Raji cells) were fluorescently labelled with CPD (eBioscience™ Cell Proliferation Dye eFluor™) prior to co-culture to distinguish the Raji cells from the effector cells and allow for analysis of target viability by flow cytometry. Following incubation, supernatant was collected and levels of pro-inflammatory cytokines IL-6 and TNF-α were measured by multiplex Luminex assay and […] was measured via time-resolved fluorescence resonance energy transfer (TR-FRET) assay. These cytokines were selected for quantification as they are early cytokines released following CAR T-cell infusion and bispecific antibody therapy administration in vivo that causes hyperactivation of the immune system resulting in acute systemic inflammation, CRS, multiorgan failure, and possible death. In addition, flow cytometry was used to measure the level of Raji tumor/target cell death following CAR T treatment across CTO1681 conditions to measure impact of CTO1681 with CAR T-cell efficacy. Co-cultures were stained with viability dye 7-AAD for measuring viability.

CD19+Raji tumor cells = assay: Raji target cell killing by CD19 CAR T-cells (flow cytometry, 7-AAD); type: cell-based, human; conditions: 0.36-225 nM; 24 hours; Effector:Target 10:1, 5:1, 1:1; listed as CT01681, monosodium salt
Excerpt: The impact of CT01681 on the efficacy of CD19-targeting CAR T-cells in vitro was studied as a surrogate measure of the impact of CTO1681 on T cell function downstream of administering bispecific antibody therapy to a subject. […] CD3 T cells were sorted from one healthy donor PBMCs, stimulated for a short period of time and transduced with CD19 CAR-T lentivirus (LV) containing CD28 and CD3ζ domains. CD19 CAR T-cells were expanded for 6 days and used in the assay. CD19-targeting CD3 T-cells were treated with 5 increasing concentrations of CT01681 (0.36 nM, 1.8 nM, 9 nM, 45 nM, and 225 nM) or vehicle for 30 minutes prior to, and during co-culture with CD19+Raji lymphoma target cells. Media alone, vehicle, and positive control (dexamethasone) wells were included. […] Following incubation, supernatant was collected and levels of pro-inflammatory cytokines IL-6 and TNF-α were measured by multiplex Luminex assay and […] was measured via time-resolved fluorescence resonance energy transfer (TR-FRET) assay. These cytokines were selected for quantification as they are early cytokines released following CAR T-cell infusion and bispecific antibody therapy administration in vivo that causes hyperactivation of the immune system resulting in acute systemic inflammation, CRS, multiorgan failure, and possible death. […]

influenza (H1N1) = type: in vivo, mice; conditions: for IL-2 in vivo / IL-6 in vivo / IL-10 in vivo: CytoAgents in vivo influenza (H1N1) studies
influenza (H5N1) = conditions: Gemmus Pharma in vivo influenza (H5N1) studies; listed as CT01681, monosodium salt; cited from earlier work
[2] = test system: CRS in SCID or humanized mice with Raji-luc tumor cells; assay: Mouse model of Raji-luc tumor with CAR-T induced CRS (Example 2); conditions: IP, BID for 7 days
[3] = listed as CT01681, monosodium salt
[4] = LPS, 24 h supernatant, CTO1681 750 μM
[5] = Poly(I:C), 24 h supernatant, CTO1681 750 μM
[6] = Effector:Target 10:1, 0.36-225 nM, 24 hours, Luminex

In the case of CC#CC[C@H](C)[C@H](O)/C=C/[C@@H]1[C@H]2c3cccc(CCCC(=O)[O-])c3O[C@H]2C[C@H]1O.[Na+] [CTO1681, (+)-[1R, 2R, 3aS, 8bS]-2,3,3a,8b-tetrahydro-2-hydroxy-1-[(E)-(3S,4S)-3-hydroxy-4-methyl-1-octen-6-ynyl)-1Hcyclopenta[b]benzofuran-5-butanoic acid, monosodium salt], the “Nominal reduction in ex vivo production of IFNα” value (normal human PBMC; LPS or Poly(I:C) stimulated PBMC, statistically significant) is reported as “less than 2 fold”, the “Number of cytokines reduced of those analyzed” value (normal human PBMC; [3]) is reported as 21 of the 29 and the “Number of cytokines reduced of those analyzed” value (normal human PBMC; monosodium salt) is reported as 21. For the same molecule, the “Cytokine response CCL2 (MCP-1) (significant reduction)” value (normal human PBMC; [4]) was “YES”, the “Cytokine response CCL3 (MIP1 α) (significant reduction)” value (normal human PBMC; [4]) was “YES” and the “Cytokine response CCL5 (RANTES) (significant reduction)” value (normal human PBMC; [4]) was “YES”. For the same molecule, the “Cytokine response CXCL9 (MIG) (significant reduction)” value (normal human PBMC; [4]) was “YES”, the “Cytokine response CXCL10 (IP-10) (significant reduction)” value (normal human PBMC; [4]) was “YES” and the “Cytokine response FGF (significant reduction)” value (normal human PBMC; [4]) was “YES”. The “Cytokine response GM-CSF (significant reduction)” value (normal human PBMC; [4]) was “YES”, the “Cytokine response IFN-α2 (significant reduction)” value (normal human PBMC; [4]) was “YES” and the “Cytokine response IFN-γ (significant reduction)” value (normal human PBMC; [4]) was “YES”. For the same molecule, the “Cytokine response IL-1α (significant reduction)” value (normal human PBMC; [4]) was “YES”, the “Cytokine response IL-1β (significant reduction)” value (normal human PBMC; [4]) was “YES” and the “Cytokine response IL-4 (significant reduction)” value (normal human PBMC; [4]) was “YES”. For the same molecule, the “Cytokine response IL-5 (significant reduction)” value (normal human PBMC; [4]) was “YES”, the “Cytokine response IL-9 (significant reduction)” value (normal human PBMC; [4]) was “YES” and the “Cytokine response IL-12 (significant reduction)” value (normal human PBMC; [4]) was “YES”. For the same molecule, the “Cytokine response IL-13 (significant reduction)” value (normal human PBMC; [4]) was “YES”, the “Cytokine response IL-15 (significant reduction)” value (normal human PBMC; [4]) was “YES” and the “Cytokine response IL-17 (significant reduction)” value (normal human PBMC; [4]) was “YES”. The “Cytokine response IL-18 (significant reduction)” value (normal human PBMC; [4]) was “YES”, the “Cytokine response PDGF (significant reduction)” value (normal human PBMC; [4]) was “YES” and the “Cytokine response TNF-α (significant reduction)” value (normal human PBMC; [4]) was “YES”. For the same molecule, the “Cytokine response CCL2 (MCP-1) (significant reduction)” value (normal human PBMC; [5]) was “YES”, the “Cytokine response CCL5 (RANTES) (significant reduction)” value (normal human PBMC; [5]) was “YES” and the “Cytokine response CXCL9 (MIG) (significant reduction)” value (normal human PBMC; [5]) was “YES”. For the same molecule, the “Cytokine response CXCL10 (IP-10) (significant reduction)” value (normal human PBMC; [5]) was “YES”, the “Cytokine response IFN-α2 (significant reduction)” value (normal human PBMC; [5]) was “YES” and the “Cytokine response IFN-γ (significant reduction)” value (normal human PBMC; [5]) was “YES”. The “Cytokine response IL-1α (significant reduction)” value (normal human PBMC; [5]) was “YES”, the “Cytokine response IL-1β (significant reduction)” value (normal human PBMC; [5]) was “YES” and the “Cytokine response IL-4 (significant reduction)” value (normal human PBMC; [5]) was “YES”. The “Cytokine response IL-5 (significant reduction)” value (normal human PBMC; [5]) was “YES”, the “Cytokine response IL-12 (significant reduction)” value (normal human PBMC; [5]) was “YES” and the “Cytokine response IL-13 (significant reduction)” value (normal human PBMC; [5]) was “YES”. For the same molecule, the “Cytokine response IL-15 (significant reduction)” value (normal human PBMC; [5]) was “YES”, the “Cytokine response IL-18 (significant reduction)” value (normal human PBMC; [5]) was “YES” and the “Cytokine response PDGF (significant reduction)” value (normal human PBMC; [5]) was “YES”. The “Cytokine response TNF-α (significant reduction)” value (normal human PBMC; [5]) was “YES”, the “Levels of IL-6” value [1, 3] was “dose-dependently lowers” and the “Levels of IL-6” value ([1]; monosodium salt) was “dose-dependently reduced”. The “Levels of TNF-α” value [1, 3] was “dose-dependently lowers”, the “Levels of TNF-α” value ([1]; monosodium salt) was “dose-dependently reduced” and the “Levels of IFN-γ” value [1, 3] was “dose-dependently lowers”. The “Levels of IFN-γ” value ([1]; monosodium salt) was “dose-dependently reduced”, the “Maximum reduction of IL-6” value [1, 6] was about 23% and the “Maximum reduction of TNF-α” value [1, 6] was “approximately 50%”. The “Maximum reduction of IFN-γ” value ([1]; Effector:Target 10:1, 0.36-225 nM, 24 hours, TR-FRET) was about 26%, the “IL-6 with increasing concentrations” value ([1]; three CAR-T:Raji ratios (10:1, 5:1, 1:1), FIG. 1D) was “reduction” and the “TNF-α with increasing concentrations” value ([1]; three CAR-T:Raji ratios (10:1, 5:1, 1:1), FIG. 1E) was “reduction”. The “IFN-γ with increasing concentrations” value ([1]; three CAR-T:Raji ratios (10:1, 5:1, 1:1), FIG. 1F) was “reduction”, the “Effect on tumor/target cell killing efficacy of CD19 CAR T-cells” value (CD19+Raji tumor cells) was “does not interfere; also recorded: absence of an effect; also recorded: did not impact or interfere” and the IL-2 in vivo (influenza (H1N1); [3]) was “significantly suppressed”. The IL-6 in vivo (influenza (H1N1); [3]) was “significantly suppressed”, the IL-10 in vivo (influenza (H1N1); [3]) was “significantly suppressed” and the IL-2 in vivo (influenza (H1N1); monosodium salt) was “reduced”. For the same molecule, the IL-6 in vivo (influenza (H1N1); monosodium salt) was “reduced”, the IL-10 in vivo (influenza (H1N1); monosodium salt) was “reduced” and the IL-8 in vivo (influenza (H1N1); mouse, in vivo) was “significantly suppressed”. For the same molecule, the “IFN-α concentrations in vivo” value (influenza (H1N1); mouse, in vivo, listed as CT01681, monosodium salt) was “no significant repression”, the “IFN-α concentrations in vivo” value (influenza (H1N1); mouse, in vivo, monosodium salt) was “not suppressed” and the IL-2 in vivo (influenza (H5N1)) was “reduced; also recorded: significantly suppressed”. The IL-6 in vivo (influenza (H5N1)) was “reduced; also recorded: significantly suppressed”, the IL-8 in vivo (influenza (H5N1)) was “reduced; also recorded: significantly suppressed” and the IL-10 in vivo (influenza (H5N1)) was “reduced; also recorded: significantly suppressed”. The “Survival benefits versus dexamethasone” value [2] was “greater survival benefits”.
